In ChEMBL document CHEMBL5346943, “Discovery and Structural Optimization of Novel Quinolone Derivatives as Potent Irreversible Pan-Fibroblast Growth Factor Receptor Inhibitors for Treating Solid Tumors” (J Med Chem, 2023):
In brackets after ≈: the same amount, converted by molar mass. Activity calls are given as the source filed them. The rule behind the calls is not given here.

Key:
[1] = C0 in Sprague-Dawley rat measured at 2 mg/kg, iv for 0.083 to 24 hrs by LC-MS/MS analysis; type: ADME, organism-based; conditions: in vivo, time 0.083-24 hrs
[2] = MRT (0 to infinity) in Sprague-Dawley rat measured at 2 mg/kg, iv for 0.083 to 24 hrs by LC-MS/MS analysis; type: ADME, organism-based; conditions: in vivo, time 0.083-24 hrs
[3] = test system: MCF7; assay: Antiproliferative activity against human MCF7 cells incubated for 72 hrs by Cell counting kit 8 method; type: functional, cell-based; conditions: MCF7, 72 h
[4] = Permeability of the compound at 10 uM preincubated in acceptor compartment for 16 hrs followed by 16 hrs incubation in donor compartment by PAMPA based LC-MS/MS analysis; type: ADME; conditions: time 32 hrs, read-out: permeability
[5] = test system: Hep 3B2; assay: Antiproliferative activity against human Hep3B cells incubated for 72 hrs by Cell counting kit 8 method; type: functional, cell-based
[6] = AUC (0 to t) in Sprague-Dawley rat measured at 10 mg/kg, po for 0.083 to 24 hrs by LC-MS/MS analysis; type: ADME, organism-based; set-up: dose 10 mg/kg, time upper 24 hrs, time lower 0.083 hrs, route po; conditions: in vivo
[7] = MRT (0 to infinity) in Sprague-Dawley rat measured at 10 mg/kg, po for 0.083 to 24 hrs by LC-MS/MS analysis; type: ADME, organism-based; conditions: in vivo, time 0.083-24 hrs
[8] = test system: A549; assay: Antiproliferative activity against human A549 cells incubated for 72 hrs by Cell counting kit 8 method; type: functional, cell-based; conditions: A549, 72 h
[9] = Tmax in Sprague-Dawley rat measured at 100 mg/kg, po for 0.083 to 24 hrs by LC-MS/MS analysis; type: ADME, organism-based; conditions: in vivo, time 0.083-24 hrs
[10] = test system: Huh-7; assay: Antitumor activity against human Huh-7 cells xenografted in BALB/c nude mouse assessed as tumor growth inhibition once daily at 60 mg/kg, po for 24 days relative to control; type: functional; set-up: scale not given: the % may be the effect or the level left; conditions: time 24 day
[11] = Solubility of the compound in PBS buffer of pH7.4 at 10 mM measured after 2 hrs by LC-MS/MS analysis; type: physicochemical; conditions: pH 7.4
[12] = test system: MV4-11; assay: Antiproliferative activity against human MV4-11 cells incubated for 72 hrs by Cell counting kit 8 method; type: functional, cell-based; conditions: MV4-11, 72 h
[13] = AUC(0 to t) in Sprague-Dawley rat measured at 100 mg/kg, po for 0.083 to 24 hrs by LC-MS/MS analysis; type: ADME, organism-based; set-up: time upper 24 hrs, dose 100 mg/kg, time lower 0.083 hrs, route po; conditions: in vivo
[14] = Half life in Sprague-Dawley rat measured at 2 mg/kg, iv for 0.083 to 24 hrs by LC-MS/MS analysis; type: ADME, organism-based; conditions: in vivo, time 0.083-24 hrs
[15] = Clearance in Sprague-Dawley rat measured at 2 mg/kg, iv for 0.083 to 24 hrs by LC-MS/MS analysis; type: ADME, organism-based; conditions: in vivo, time 0.083-24 hrs
[16] = AUC (0 to infinity) in Sprague-Dawley rat measured at 10 mg/kg, po for 0.083 to 24 hrs by LC-MS/MS analysis; type: ADME, organism-based; set-up: dose 10 mg/kg, time upper 24 hrs, time lower 0.083 hrs, route po; conditions: in vivo
[17] = Volume of distribution at steady state in Sprague-Dawley rat measured at 2 mg/kg, iv for 0.083 to 24 hrs by LC-MS/MS analysis; type: ADME, organism-based; conditions: in vivo, time 0.083-24 hrs, read-out: Vdss
[18] = Microsomal stability in human liver microsomes assessed as half life preincubated for 10 mins followed by NADPH addition measured upto 60 mins by LC-MS/MS analysis; type: ADME, Microsome; conditions: time < 70 min
[19] = test system: Huh-7; assay: Antitumor activity against human Huh-7 cells xenografted in BALB/c nude mouse assessed as tumor growth inhibition once daily at 30 mg/kg, po for 24 days relative to control; type: functional; set-up: scale not given: the % may be the effect or the level left; conditions: time 24 day
[20] = Half life in Sprague-Dawley rat measured at 30 mg/kg, po for 0.083 to 24 hrs by LC-MS/MS analysis; type: ADME, organism-based; conditions: in vivo, time 0.083-24 hrs
[21] = MRT (0 to t) in Sprague-Dawley rat measured at 10 mg/kg, po for 0.083 to 24 hrs by LC-MS/MS analysis; type: ADME, organism-based; conditions: in vivo, time 0.083-24 hrs
[22] = Tmax in Sprague-Dawley rat measured at 2 mg/kg, iv for 0.083 to 24 hrs by LC-MS/MS analysis; type: ADME, organism-based; conditions: in vivo, time 0.083-24 hrs
[23] = Antiproliferative activity against human RBE cells incubated for 72 hrs by Cell counting kit 8 method; type: functional, cell-based
[24] = test system: SNU-16; assay: Antiproliferative activity against human SNU-16 cells incubated for 72 hrs by Cell counting kit 8 method; type: functional, cell-based; conditions: SNU-16, 72 h
[25] = test system: Huh-7; assay: Antitumor activity against human Huh-7 cells xenografted in BALB/c nude mouse assessed as reduction in tumor growth once daily administered orally for 24 days; type: functional; conditions: dose 15-60 mg/kg, route po, time 24.0 day
[26] = Toxicity in […] nude mouse xenografted with Huh-7 cells assessed as change in body weight once daily at 15 to 60 mg/kg, po for 24 days relative to control; type: organism-based; conditions: in vivo, 576 h, dose 15-60 mg/kg, time 24 day
[27] = Oral bioavailability in Sprague-Dawley rat measured at 10 mg/kg for 0.083 to 24 hrs by LC-MS/MS analysis; type: ADME, organism-based; conditions: in vivo, time 0.083-24 hrs
[28] = target: Fibroblast growth factor receptor 3 (Homo sapiens, UniProt P22607); assay: Inhibition of FGFR3 (unknown origin) incubated for 10 mins followed by substrate addition measured after 60 mins by ADP-Glo luminescence assay
[29] = Tmax in Sprague-Dawley rat measured at 30 mg/kg, po for 0.083 to 24 hrs by LC-MS/MS analysis; type: ADME, organism-based; conditions: in vivo, time 0.083-24 hrs
[30] = Toxicity in […] nude mouse xenografted with NCI-H1581 cells assessed as change in body weight once daily at 15 to 60 mg/kg, po for 24 days relative to control; type: organism-based; conditions: in vivo, 576 h, dose 15-60 mg/kg, time 24 day
[31] = AUC(0 to t) in Sprague-Dawley rat measured at 60 mg/kg, po for 0.083 to 24 hrs by LC-MS/MS analysis; type: ADME, organism-based; set-up: time upper 24 hrs, time lower 0.083 hrs, dose 60 mg/kg, route po; conditions: in vivo
[32] = AUC(0 to infinity) in Sprague-Dawley rat measured at 60 mg/kg, po for 0.083 to 24 hrs by LC-MS/MS analysis; type: ADME, organism-based; set-up: time lower 0.083 hrs, dose 60 mg/kg, time upper 24 hrs, route po; conditions: in vivo
[33] = AUC(0 to infinity) in Sprague-Dawley rat measured at 100 mg/kg, po for 0.083 to 24 hrs by LC-MS/MS analysis; type: ADME, organism-based; set-up: dose 100 mg/kg, time 0.083-24 hrs, route po; conditions: in vivo
[34] = AUC(0 to infinity) in Sprague-Dawley rat measured at 30 mg/kg, po for 0.083 to 24 hrs by LC-MS/MS analysis; type: ADME, organism-based; set-up: time upper 24 hrs, dose 30 mg/kg, time lower 0.083 hrs, route po; conditions: in vivo
[35] = target: Fibroblast growth factor receptor 4 (Homo sapiens, UniProt P22455); assay: Inhibition of FGFR4 (unknown origin) incubated for 10 mins followed by substrate addition measured after 60 mins by ADP-Glo luminescence assay
[36] = test system: Huh-7; assay: Antitumor activity against human Huh-7 cells xenografted in BALB/c nude mouse assessed as reduction in tumor growth once daily at 60 mg/kg, po for 24 days; type: functional, organism-based; conditions: time 24.0 day
[37] = test system: Huh-7; assay: Antiproliferative activity against human Huh-7 cells incubated for 72 hrs by Cell counting kit 8 method; type: functional, cell-based; conditions: Huh-7, 72 h
[38] = Cmax in Sprague-Dawley rat measured at 10 mg/kg, po for 0.083 to 24 hrs by LC-MS/MS analysis; type: ADME, organism-based; set-up: time 0.083-24 hrs, dose 10 mg/kg, route po; conditions: in vivo
[39] = Tmax in Sprague-Dawley rat measured at 60 mg/kg, po for 0.083 to 24 hrs by LC-MS/MS analysis; type: ADME, organism-based; conditions: in vivo, time 0.083-24 hrs

Chain of Fibroblast growth factor receptor 4 (P22455 whole entry): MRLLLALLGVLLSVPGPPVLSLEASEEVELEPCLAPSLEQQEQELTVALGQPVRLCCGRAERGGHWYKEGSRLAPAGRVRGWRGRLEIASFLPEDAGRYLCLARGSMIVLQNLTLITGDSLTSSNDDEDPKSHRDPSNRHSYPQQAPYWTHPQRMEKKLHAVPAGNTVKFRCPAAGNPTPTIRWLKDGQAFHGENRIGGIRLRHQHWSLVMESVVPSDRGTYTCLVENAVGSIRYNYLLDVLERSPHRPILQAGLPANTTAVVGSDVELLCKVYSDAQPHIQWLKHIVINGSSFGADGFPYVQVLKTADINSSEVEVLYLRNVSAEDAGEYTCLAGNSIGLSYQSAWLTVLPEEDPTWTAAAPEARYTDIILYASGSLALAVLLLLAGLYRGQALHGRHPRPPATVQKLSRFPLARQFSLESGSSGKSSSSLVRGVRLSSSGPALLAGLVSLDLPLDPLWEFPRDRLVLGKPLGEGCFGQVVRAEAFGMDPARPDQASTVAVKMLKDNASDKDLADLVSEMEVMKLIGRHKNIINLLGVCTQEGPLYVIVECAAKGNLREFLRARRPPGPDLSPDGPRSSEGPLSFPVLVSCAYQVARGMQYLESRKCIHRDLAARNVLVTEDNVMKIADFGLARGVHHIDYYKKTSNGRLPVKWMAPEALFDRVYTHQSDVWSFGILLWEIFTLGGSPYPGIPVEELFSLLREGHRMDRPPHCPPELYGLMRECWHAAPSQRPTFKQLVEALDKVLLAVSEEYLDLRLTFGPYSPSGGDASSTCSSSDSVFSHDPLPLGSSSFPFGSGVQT
Chain of Fibroblast growth factor receptor 3 (P22607 whole entry): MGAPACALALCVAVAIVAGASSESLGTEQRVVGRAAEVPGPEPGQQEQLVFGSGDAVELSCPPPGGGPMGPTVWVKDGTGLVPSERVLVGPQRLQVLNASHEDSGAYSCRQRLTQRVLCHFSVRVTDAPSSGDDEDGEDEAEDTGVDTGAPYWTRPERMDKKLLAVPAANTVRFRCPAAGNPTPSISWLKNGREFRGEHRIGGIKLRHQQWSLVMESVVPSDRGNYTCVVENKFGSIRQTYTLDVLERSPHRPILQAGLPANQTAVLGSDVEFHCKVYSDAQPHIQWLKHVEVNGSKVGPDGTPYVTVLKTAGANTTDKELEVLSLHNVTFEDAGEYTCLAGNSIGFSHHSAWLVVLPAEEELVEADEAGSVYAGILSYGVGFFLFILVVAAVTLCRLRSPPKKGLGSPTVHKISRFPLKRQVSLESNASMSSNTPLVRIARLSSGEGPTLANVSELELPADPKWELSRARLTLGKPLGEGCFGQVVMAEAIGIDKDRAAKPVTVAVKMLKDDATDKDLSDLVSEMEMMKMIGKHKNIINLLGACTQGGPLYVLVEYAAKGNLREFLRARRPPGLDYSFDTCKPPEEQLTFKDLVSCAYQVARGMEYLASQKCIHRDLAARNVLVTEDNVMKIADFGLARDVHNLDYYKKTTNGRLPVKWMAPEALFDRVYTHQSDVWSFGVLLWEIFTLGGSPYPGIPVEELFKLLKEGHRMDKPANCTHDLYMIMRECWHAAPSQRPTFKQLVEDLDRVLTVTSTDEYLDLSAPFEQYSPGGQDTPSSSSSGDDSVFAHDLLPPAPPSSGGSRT

C=CC(=O)N1CCC(c2cc3c(Oc4ccc(NC(=O)NC5CC5)c(Cl)c4)ccnc3cc2OC)CC1
C0 [1]: 3300 ng/mL | MRT [2]: 11.4 min | IC50 [3]: > 10000 nM | Papp at 16 h, 10 µM [4]: 12.3 ×10⁻⁶ cm/s | IC50 [5]: 52.6 nM | AUC(0-t) [6]: 1730 ng·h/mL | MRT [7]: 190 min | IC50 [8]: > 10000 nM | Tmax [9]: 30 min | Activity [10]: 88.2% | solubility at 2 h, 10000 µM [11]: 1.73 µM (≈ 0.901 µg/mL) | IC50 [12]: > 10000 nM | AUC(0-t) [13]: 28100 ng·h/mL | half-life [14]: 15.6 min | clearance [15]: 58 mL/min/kg | AUC(0-inf) [16]: 1970 ng·h/mL | Vd [17]: 1.32 L/kg | half-life [18]: 61.9 min | Activity [19]: 89.6% | half-life [20]: 193 min | MRT last [21]: 119 min | Tmax [22]: 4.8 min | IC50 [23]: 357 nM | IC50 [24]: 1.8 nM | Activity [25]: Dose-Dependent Effect | Activity [26]: Active | bioavailability [27]: 60.7% | IC50 [28]: 16 nM | Tmax [29]: 30 min | Activity [30]: Active | AUC(0-t) [31]: 14900 ng·h/mL | AUC(0-inf) [32]: 14900 ng·h/mL | AUC(0-inf) [33]: 28200 ng·h/mL | AUC(0-inf) [34]: 7950 ng·h/mL | IC50 [35]: 1.8 nM | Activity [36]: Active | IC50 [37]: 12.6 nM | Cmax [38]: 1800 ng/mL | Tmax [39]: 30 min
